For the series the following is noted: Liquid, Closed cell (Static) method.

Numbers after ± are expanded uncertainties.

As a reminder, the vapor or sublimation pressure is the equilibrium pressure above the liquid or solid. On to `C=C` [ethene], for which the “vapor or sublimation pressure” value was determined as 3648.5 ± 22 kPa (268.13 K) and 4611.2 ± 26 kPa (278.36 K).

`FC(F)(F)C(F)(F)C(F)(F)C(F)(F)F` [decafluorobutane]: the “vapor or sublimation pressure” value runs as follows: (268.13 K) 91 ± 12 kPa; (278.36 K) 134.6 ± 12 kPa; (288.16 K) 192.9 ± 12 kPa; (298.13 K) 268.8 ± 12 kPa.

(Values after the NIST ThermoML archive (doi:10.1016/j.fluid.2012.08.023).)
